From US11208404B2 (PERENNA PHARMACEUTICALS, INC., priority 2017, dated 2021)
Where two headings read alike, the source gives them in different places.

Biological target: ALCAT1 (Homo sapiens (Human), UniProt Q6UWP7)
Assay: In vitro acyltransferase assay for ALCAT1 inhibitors
Format: biochemical
Conditions: for inhibition at 1 µM / % inh @ 1 μM: 1 μM compound; for IC50: ALCAT1 enzyme activity
Source text: The human ALCAT1 protein were expressed in Spodoptera frugiperda (Sf9) insect cells by using a Bac-to-Bac baculovirus expression system (Invitrogen) according to the manufacturer's instruction. High-titer recombinant baculovirus expressing the human ALCAT1 protein was generated by several rounds of viral amplification. The Sf9 cells were typically infected with recombinant baculovirus for 3 days, harvested in ice-cold phosphate-buffered saline (PBS), and homogenized in 20 mm NaCl by going through French press. The total cell lysates were centrifuged at 10,000×g for 1 hours at 4° C. to eliminate the nucleus fraction, followed by ultracentrifugation at 100,000×g to pallet the membrane fraction. The membrane fraction was resuspended in enzymatic buffer that contain 10% glycerol, quantified for protein concentration, aliquoted, and stored at −80° C.
ALCAT1 enzymatic activity was determined by measuring the conversion of monolysocardiolipin (MLCL) to cardiolipin or lysophosphatidylglycerol (LPG) to phosphatidylglycerol (PG) in an enzymatic reaction mixture that contained 50 mm Tris/HCl, pH 7.0, 100 μm lysophospholipids, 25 μm [^14C]acyl-CoA (50 mCi/mmol, American Radiolabeled Chemicals, Inc), and membrane fraction (0.5-2.5 μg) in a total volume of 200 μl. The reaction was incubated at room temperature for 30 min. The lipids were extracted will chloroform, dried, and separated by thin layer chromatography (TLC) with chloroform:hexane:methanol:acetic acid (50:30:10:5, v/v) or chloroform:methanol:water (65:25:4, v/v). After separation, TLC plates were exposed to a Phosphorlmager screen to visualize the radiolabeled products with a Molecular Dynamics Typhoon Scanner (Sunnyvale, Calif.). In some experiments, NBD-CoA was used at 100 μM to replace the [^14C]acyl-CoA in the enzymatic reaction. All quantitative data were expressed as mean±S.E. Statistical analyses for differences between two groups were carried out using a Student's t test.
Compound inhibitors for ALCAT1 enzyme were analyzed by an in vitro enzymatic assay as detailed above. Compound inhibitors were added to the enzymatic mixture at 1-20 μM concentrations before the start of the acyltransferase reaction.
Where multiple measurements were taken this is indicated by a “/” between multiple values.
IC50 values for each compound were analyzed in triplicates, and calculated by GraphPad software.

[1] = triplicates, GraphPad, read-out: IC50

Chain of ALCAT1 (Q6UWP7 whole entry): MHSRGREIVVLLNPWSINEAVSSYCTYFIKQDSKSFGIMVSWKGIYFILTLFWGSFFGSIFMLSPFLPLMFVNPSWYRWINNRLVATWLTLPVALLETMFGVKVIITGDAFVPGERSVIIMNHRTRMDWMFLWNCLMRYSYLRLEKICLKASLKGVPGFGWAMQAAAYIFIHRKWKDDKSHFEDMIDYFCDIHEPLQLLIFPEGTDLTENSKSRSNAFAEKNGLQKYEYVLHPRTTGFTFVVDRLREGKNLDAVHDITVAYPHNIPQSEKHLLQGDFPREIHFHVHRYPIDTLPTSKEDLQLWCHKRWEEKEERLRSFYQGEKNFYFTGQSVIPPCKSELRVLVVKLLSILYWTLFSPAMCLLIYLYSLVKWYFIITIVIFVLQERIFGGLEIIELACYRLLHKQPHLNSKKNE

Compound	inhibition at 1 µM (in vitro enzymatic assay) [%]	inhibition at 10 µM (10 μM compound, in vitro enzymatic assay) [%]	IC50 [1] [nM]	% inh @ 1 μM (in vitro enzymatic assay)	IC50 (read-out: IC50 values (upper bounds)) [nM]
O=C(Nc1cccc(-c2nnc(-c3ccco3)o2)c1)c1cccc(Br)c1 [Compound 203]			1900		
CCCOc1ccc(C)cc1C(=O)Nc1cccc(-c2nnc(-c3ccco3)o2)c1 [Compound 207]	86		190	87%	
O=C(Nc1cccc(-c2nnc(-c3ccco3)o2)c1)c1cc(OC(F)(F)F)ccc1F [Compound 211, 2-Fluoro-N-(3-(5-(furan-2-yl)-1,3,4-oxadiazol-2-yl)phenyl)-5-(trifluoromethoxy)benzamide]	95		96	97%	
O=C(Nc1cccc(-c2nnc(-c3ccco3)o2)c1)c1ccc2occc2c1 [Compound 212]	26				
CCCCOc1ccccc1C(=O)Nc1cc(-c2nnc(-c3ccco3)o2)ccc1F [Compound 213]	56			64%	
COc1ccc(F)c(C(=O)Nc2cccc(-c3nnc(-c4ccco4)o3)c2)c1 [Compound 214]	67			76%	
CCOc1ccccc1C(=O)Nc1cc(-c2nnc(-c3ccco3)o2)ccc1F [Compound 215, 2-Ethoxy-N-(2-fluoro-5-(5-(furan-2-yl)-1,3,4-oxadiazol-2-yl)phenyl)benzamide]	100		26	100/100%	< 100
CC(C)COc1ccccc1C(=O)Nc1cccc(-c2nnc(-c3ccco3)o2)c1 [Compound 217]	69			68%	
CCOc1ccc(C)cc1C(=O)Nc1cccc(-c2nnc(-c3ccco3)o2)c1 [Compound 218, 2-Ethoxy-N-(3-(5-(furan-2-yl)-1,3,4-oxadiazol-2-yl)phenyl)-5-methylbenzamide]	99		67	98%	
O=C(Nc1cccc(-c2nnc(-c3ccco3)o2)c1)c1ccccc1OCC(F)(F)F [Compound 223]	94		150	90%	
Cc1ccc(OCC(F)(F)F)c(C(=O)Nc2cccc(-c3nnc(-c4ccco4)o3)c2)c1 [Compound 224]	91		190	97%	
O=C(Nc1cccc(-c2nnc(-c3ccco3)o2)c1)c1cc(Cl)ccc1OCC(F)(F)F [Compound 225, 5-Chloro-N-(3-(5-(furan-2-yl)-1,3,4-oxadiazol-2-yl)phenyl)-2-(2,2,2-trifluoroethoxy)benzamide]	92		100	97%	
O=C(Nc1cccc(-c2nnc(-c3ccco3)o2)c1)c1cc(F)ccc1OCC(F)(F)F [Compound 228, 5-Fluoro-N-(3-(5-(furan-2-yl)-1,3,4-oxadiazol-2-yl)phenyl)-2-(2,2,2-trifluoroethoxy)benzamide]	100		72	99%	
O=C(Nc1cc(Cl)ccc1F)c1cccc(-c2nnc(-c3ccco3)o2)c1 [Compound 229]	97		170	97/97%	
COc1ccc(Cl)cc1NC(=O)c1cccc(-c2nnc(-c3ccco3)o2)c1 [Compound 230]	94		410	89%	
O=C(Nc1cccc(-c2nnc(-c3ccco3)o2)c1)c1ccccc1OC(F)(F)F [Compound 232]	61			61/61%	
O=C(Nc1cccc(-c2nnc(-c3ccco3)o2)c1)c1cccc(OC(F)(F)F)c1 [Compound 233]	68			65%	
O=C(Nc1cccc(-c2nnc(-c3ncco3)o2)c1)c1ccccc1F [Compound 236]	7			8%	
O=C(Nc1cccc(-c2nnc(-c3ccco3)o2)c1)c1ccncc1 [Compound 237]	35			46%	
CS(=O)(=O)c1ccccc1C(=O)Nc1cccc(-c2nnc(-c3ccco3)o2)c1 [Compound 248]	30			50%	
O=C(Nc1cccc(-c2nnc(-c3ccco3)o2)c1)c1ccccc1OC(F)F [Compound 273]	97		120	96%	
O=C(Nc1cccc(-c2nnc(-c3ccco3)o2)c1)c1ccccc1OCC(F)F [Compound 275]	98		200	99%	
CC(C)c1cccc(C(=O)Nc2cccc(-c3nnc(-c4ccco4)o3)c2)c1 [Compound 277]	23			23/23%	
CCc1ccc(OC)c(C(=O)Nc2cccc(-c3nnc(-c4ccco4)o3)c2)c1 [Compound 280]	94		120	100%	
O=C(Nc1cccc(-c2nnc(-c3ccco3)o2)c1)c1cc(Cl)ccc1OCC(F)F [Compound 286]			120		
O=C(Nc1cc(-c2ncc(-c3ccco3)o2)ccc1F)c1cccnc1F [Compound 288]	48			59%	
O=C(Nc1cc(-c2nnc(-c3ccco3)o2)ccc1F)c1ccccc1OC(F)(F)F [Compound 301, N-(2-Fluoro-5-(5-(furan-2-yl)-1,3,4-oxadiazol-2-yl)phenyl)-2-(trifluoromethoxy)benzamide]			100		
O=C(Nc1cc(-c2nnc(-c3ccco3)s2)ccc1F)c1ccccc1F [Compound 325]	63				
O=C(Nc1cc(-c2nnc(-c3ccco3)o2)ccc1F)c1ccc2c(c1)COC2 [Compound 331]	12				

Results, then the compound that gave them:

inhibition at 1 µM (in vitro enzymatic assay) [%]	inhibition at 10 µM (10 μM compound, in vitro enzymatic assay) [%]	IC50 [1] [nM]	% inh @ 1 μM (in vitro enzymatic assay)	IC50 (read-out: IC50 values (upper bounds)) [nM]	Compound
80	97	79			COc1ccc(C)cc1C(=O)Nc1cccc(-c2nnc(-c3ccco3)o2)c1 [Compound 197, N-(3-(5-(Furan-2-yl)-1,3,4-oxadiazol-2-yl)phenyl)-2-methoxy-5-methylbenzamide]
96		120	94%		COc1c(F)cccc1C(=O)Nc1cccc(-c2nnc(-c3ccco3)o2)c1 [Compound 220]
100		60	99%		O=C(Nc1cccc(-c2nnc(-c3ccco3)o2)c1)c1cc(Br)ccc1OCC(F)(F)F [Compound 226, 5-Bromo-N-(3-(5-(furan-2-yl)-1,3,4-oxadiazol-2-yl)phenyl)-2-(2,2,2-trifluoroethoxy)benzamide]
85		160	89%		O=C(Nc1cccc(-c2nnc(-c3ccco3)o2)c1)c1cccc2ccoc12 [Compound 227]
46			42%		O=C(Nc1cccc(-c2nnc(-c3ccco3)o2)c1)c1cccc(C(F)(F)F)c1 [Compound 234]
12					O=C(Nc1cccc(-c2nnc(-c3ccco3)o2)c1)c1cccnc1 [Compound 235]
23			23/23%		O=C(Nc1cccc(-c2nnc(-c3ccco3)o2)c1)c1cccc(-c2ccccc2)c1 [Compound 238]
12			6%		CCc1ccccc1C(=O)Nc1cccc(-c2nnc(-c3ccco3)o2)c1 [Compound 240]
83		780	84%		Cc1ccc(F)c(NC(=O)c2cccc(-c3nnc(-c4ccco4)o3)c2)c1 [Compound 271]
97		120	100%		COc1ccc(C(F)(F)F)cc1C(=O)Nc1cccc(-c2nnc(-c3ccco3)o2)c1 [Compound 278]
24			31%		O=C(Nc1cc(-c2nnc(-c3cncs3)o2)ccc1F)c1ccccc1F [Compound 290, 2-fluoro-N-(2-fluoro-5-(5-(thiazol-5-yl)-1,3,4-oxadiazol-2-yl)phenyl)benzamide]
14			12%		O=C(Nc1cccc(-c2nnc(-c3cncs3)o2)c1)c1ccccc1F [Compound 292]
37					O=C(Nc1cc(Cl)cc(-c2nnc(-c3ccco3)o2)c1)c1ccccc1F [Compound 295]
55			73%		O=C(Nc1cccc(-c2nnc(-c3ccco3)o2)c1)c1cccc2c1OCCC2 [Compound 296]
75		290	83%		O=C(Nc1cccc(-c2nnc(-c3ccco3)o2)c1Cl)c1ccccc1F [Compound 297]
15					O=C(Nc1cccc(-c2nnc(-c3cc[nH]n3)o2)c1)c1ccccc1F [Compound 298, N-(3-(5-(1H-pyrazol-3-yl)-1,3,4-oxadiazol-2-yl)phenyl)-2-fluorobenzamide]
